# Experimental data taken from PMC6538641 (2019).
# pKd: −log10 of the molar value.
# How the values were obtained:
# nucleolin = nucleolin (UniProt P19338); experiment: fluorescence titration; settings: Fluorescence titration: buffer for the nucleolin titration not stated separately (C8-aptamer titrations: 30 mM potassium phosphate pH 7.2, 100 mM KCl)
# [1] = tested on: 5'-FAM-AS1411-TAMRA-3' (DNA, G4) GGTGGTGGTGGTTGTGGTGGTGGTGG; experiment: FRET melting; settings: 10 mM KCl, 90 mM LiCl; 10 mM lithium cacodylate, pH 7.2; 1 µM C8, 0.2 µM DNA; no nucleolin; Tm 46.9 °C
# [2] = tested on: AS1411 (DNA, G4) GGTGGTGGTGGTTGTGGTGGTGGTGG; experiment: fluorescence titration of ligand, Hill model; settings: 100 mM KCl, 30 mM potassium phosphate; pH 7.2; 5 μM C8; apparent; Hill n 2.8; SD ≤ 1 × 10^−8 M
# [3] = tested on: AS1411 (DNA, G4) GGTGGTGGTGGTTGTGGTGGTGGTGG; experiment: CD melting; settings: 10 mM KCl, 90 mM LiCl; 10 mM lithium cacodylate, pH 7.2; 2 molar equivalents C8; Tm without ligand 56.3 °C
# [4] = tested on: U-AS1411 (DNA, G4, uracil in place of thymine at 12 and 13 (text: dT to rU substitutions)) GGTGGTGGTGGUUGTGGTGGTGGTGG; experiment: fluorescence titration of ligand, Hill model; settings: 100 mM KCl, 30 mM potassium phosphate; pH 7.2; 5 μM C8; apparent; Hill n 2.5; SD ≤ 1 × 10^−8 M
# [5] = tested on: U-AS1411 (DNA, G4, uracil in place of thymine at 12 and 13 (text: dT to rU substitutions)) GGTGGTGGTGGUUGTGGTGGTGGTGG; experiment: CD melting; settings: 10 mM KCl, 90 mM LiCl; 10 mM lithium cacodylate, pH 7.2; 2 molar equivalents C8; Tm without ligand 52.6 °C
# UniProt P19338, sequence (P19338 whole entry): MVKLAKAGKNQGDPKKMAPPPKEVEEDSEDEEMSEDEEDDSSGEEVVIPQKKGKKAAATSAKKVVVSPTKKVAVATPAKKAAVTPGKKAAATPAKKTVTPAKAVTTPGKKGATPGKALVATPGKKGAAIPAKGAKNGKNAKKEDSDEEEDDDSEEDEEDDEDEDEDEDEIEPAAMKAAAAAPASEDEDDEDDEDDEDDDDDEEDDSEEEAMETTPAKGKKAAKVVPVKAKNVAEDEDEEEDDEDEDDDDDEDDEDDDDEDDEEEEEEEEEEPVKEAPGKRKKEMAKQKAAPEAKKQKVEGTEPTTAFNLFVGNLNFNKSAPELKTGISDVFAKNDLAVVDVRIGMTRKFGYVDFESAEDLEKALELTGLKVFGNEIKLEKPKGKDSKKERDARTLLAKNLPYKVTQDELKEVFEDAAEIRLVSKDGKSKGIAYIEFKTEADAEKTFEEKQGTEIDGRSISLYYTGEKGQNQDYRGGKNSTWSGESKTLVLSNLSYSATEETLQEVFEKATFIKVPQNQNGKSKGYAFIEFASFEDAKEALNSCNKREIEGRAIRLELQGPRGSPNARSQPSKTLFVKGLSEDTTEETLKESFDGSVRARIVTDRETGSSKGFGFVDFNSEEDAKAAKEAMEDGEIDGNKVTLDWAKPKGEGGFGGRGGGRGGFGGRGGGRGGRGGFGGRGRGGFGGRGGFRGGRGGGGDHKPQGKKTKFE
Compound,"pKd (nucleolin; no C8, Cy3-AS1411 at 1 uM (Kd far below probe concentration))","pKd (nucleolin; with ligand C8, Cy3-AS1411 at 1 uM (Kd far below probe concentration))",ΔTm [1] [°C],KD [2] [nM],ΔTm [3] [°C],KD [4] [nM],ΔTm [5] [°C]
GGTGGTGGTGGTTGTGGTGGTGGTGG [Cy3-AS1411],11.06,11.20,–,–,–,–,–
CN(C)c1ccc2cc3ccc(N(C)C)cc3[n+](CCCCCCCCNC(=O)c3ccc(I)cc3)c2c1,–,–,13.1 ± 0.8,1290,28.4 ± 0.2,1370,24.5 ± 0.4
